In patent US11285170B2, “Fractionated antimicrobial compositions and use thereof” (priority 2017, dated 2022):
≈ marks a conversion by molar mass, not a printed value. Read-outs that look alike come from different tables or passages of the source. One block for each compound: values may come before it.

Key:
[1] = tested on: A. fumigatus; experiment: Animal model of respiratory infection, mortality; format: in vivo, C57BL/6 mice; conditions: mice, intranasal infection; treatment 12 h after infection by intranasal inhalation at 32×MIC
Procedure: (§1) In this example the efficacy of the preparations were tested against an animal model of mixed respiratory infection.
(§2) The potency of Example Nos. 1, 5 and 10 were examined against bacterial isolates from patients with cystic fibrosis. The MICs values were determined by the broth macrodilution method according to the CLSI guideline. For the in vivo studies, 8-week-old C57BL/6 mice were intranasally infected with P. aeruginosa MR-6 (2×10^7 cfu/mouse)+A. fimigatus (6×10^6 cfu/mouse).

[2] = tested on: P. aeruginosa; experiment: Animal model of respiratory infection, mortality; format: in vivo, C57BL/6 mice; conditions: mice, intranasal infection; treatment 12 h after infection by intranasal inhalation at 32×MIC
Procedure: as §1, §2

[3] = tested on: P. aeruginosa; experiment: MIC by broth macrodilution, isolates from patients with cystic fibrosis, Example 22; format: cell-based; conditions: Pseudomonas aeruginosa, CLSI, read-out: MIC against P. aeruginosa
Procedure: as §2

[4] = tested on: P. aeruginosa + A. fumigatus; experiment: Animal model of mixed respiratory infection, mortality; format: in vivo, C57BL/6 mice; conditions: mice, intranasal infection; treatment 12 h after infection by intranasal inhalation at 32×MIC
Procedure: as §1, §2

[5] = tested on: A. fumigatus; experiment: MIC by broth macrodilution, Example 22; format: cell-based, Aspergillus fumigatus; conditions: CLSI
Procedure: as §2

[6] = tested on: Pseudomonas aeruginosa AGR 18 and MR23 multiresistant; experiment: MIC against multi-drug resistant P. aeruginosa; format: cell-based
Procedure: (§3) In this example, the efficacy of Examples 1, 10 and 13 were tested against multi-drug resistant microorganisms.
(§4) Bacterial strains tested: Pseudomonas aeruginosa AGR 18 and MR23 multiresistant. Fungal strain: Candida glabrata CG15, VT18 resistant to Amphotericin B and Voriconazole Microbiological efficacy was determined as the Minimal Inhibitory Concentration.
The bactericidal activities of Examples 1, 10 and 13 against multiresistant P. aeruginosa isolates are shown below in Table 17.

[7] = tested on: MSSA strain ATCC 29213; experiment: MIC by broth macrodilution against S. aureus isolates, MSSA strain; format: cell-based; conditions: Staphylococcus aureus, read-out: MSSA strain MIC
Excerpt: The cultures used in this study were bacterial clinical isolates from human infections.

[8] = tested on: Vancomycin resistant S. aureus (VRSA); experiment: MIC by broth macrodilution against S. aureus isolates; format: cell-based; conditions: Staphylococcus aureus
Procedure: In this example, the efficacy of the inventive preparations was tested against Vancomycin resistant S. aureus (VRSA)
The MICs were determined using a broth macrodilution method with cation-adjusted Mueller-Hinton broth II (Becton Dickinson) at standard inoculum (10^5 cfu/mL) following the CLSI recommendations. The cultures used in this study were bacterial clinical isolates from human infections.

[9] = tested on: Candida glabrata CG15, VT18; experiment: MIC against multiresistant C. glabrata; format: cell-based
Procedure: as §3, §4
The bactericidal activities of Examples 1, 10 and 13 against multiresistant C. glabrata isolates are shown below in Table 18.

[10] = tested on: Ehrlich solid tumor; experiment: Ehrlich solid tumor, combined effect with anticancer drugs; format: in vivo; conditions: combination study, 0.2 ml of 0.01% solution intraperitoneally
Procedure: In this experiment, a model of continuous Ehrlich solid tumor was used to study combined effect of claimed product with anticancer drugs. The drugs were administered simultaneously with the tumor transplantation (0.2 ml of 0.01% solution) intraperitoneally. The control animals received water (used as solvent for the drugs tested).

[11] = VT-A-199, read-out: VRSA strain MIC
[12] = VT-V-18, read-out: VRSA strain MIC
[13] = VT-V-25, read-out: VRSA strain MIC

Structure (SMILES): NC[C@H]1O[C@H](O[C@H]2[C@H](O)[C@@H](O[C@H]3O[C@H](CO)[C@@H](O)[C@H](N)[C@H]3O)[C@H](N)C[C@@H]2N)[C@H](N)C[C@@H]1O [Tobramycin, tobramycin]
Percent mortality 96 h post infection, A. fumigatus [1]: 40%
Percent mortality 96 h post infection, P. aeruginosa [2]: 20%
MIC [3]: 16 to 32 µg/mL (≈ 34.2 to 68.4 µM)
Percent mortality 96 h post infection, P. aeruginosa + A. fumigatus [4]: 50%
MIC against A. fumigatus [5]: not active
MIC ([6]; P. aeruginosa strain AGR 18): 32 µg/mL (≈ 68.4 µM)
MIC ([6]; P. aeruginosa strain MR23): 32 µg/mL (≈ 68.4 µM)

MIC ([7]; ATCC 29213): 0.25 µg/mL (≈ 0.715 µM)
MIC [8, 11]: 16 µg/mL (≈ 45.8 µM)
MIC [8, 12]: 64 µg/mL (≈ 183 µM)
MIC [8, 13]: 32 µg/mL (≈ 91.6 µM)
Structure (SMILES): CC1(C)S[C@@H]2[C@H](NC(=O)[C@H](N)c3ccccc3)C(=O)N2[C@H]1C(=O)O [Ampicillin]

Structure (SMILES): CCC[C@@H]1C[C@@H](C(=O)N[C@@H]([C@H]2O[C@H](SC)[C@H](O)[C@@H](O)[C@H]2O)[C@H](C)Cl)N(C)C1 [Clindamycin]
MIC ([7]; ATCC 29213): 0.125 µg/mL (≈ 0.294 µM)
MIC [8, 11]: 2 µg/mL (≈ 4.71 µM)
MIC [8, 12]: 4 µg/mL (≈ 9.41 µM)
MIC [8, 13]: 2 µg/mL (≈ 4.71 µM)

Structure (SMILES): C[C@@H](c1ncncc1F)[C@](O)(Cn1cncn1)c1ccc(F)cc1F [VRZ]
Minimal inhibitory concentration ([9]; C. glabrata CG1514053): 8 µg/mL (≈ 22.9 µM)
Minimal inhibitory concentration ([9]; C. glabrata VT18): 4 µg/mL (≈ 11.5 µM)

Structure (SMILES): CCN1CCN(C(=O)N[C@@H](C(=O)N[C@@H]2C(=O)N3[C@@H]2SC(C)(C)[C@@H]3C(=O)O)c2ccccc2)C(=O)C1=O [Piperacillin]
MIC ([6]; P. aeruginosa strain AGR 18): > 256 µg/mL
MIC ([6]; P. aeruginosa strain MR23): 256 µg/mL (≈ 495 µM)

Structure (SMILES): C[C@H]1[C@H](NC(=O)/C(=N\OC(C)(C)C(=O)O)c2csc(N)n2)C(=O)N1S(=O)(=O)O [Aztreonam, aztreonam]
Percent mortality 96 h post infection, A. fumigatus [1]: 30%
Percent mortality 96 h post infection, P. aeruginosa [2]: 20%
MIC [3]: 64 µg/mL (≈ 147 µM)
Percent mortality 96 h post infection, P. aeruginosa + A. fumigatus [4]: 60%
MIC against A. fumigatus [5]: not active
MIC ([6]; P. aeruginosa strain AGR 18): 32 µg/mL (≈ 73.5 µM)
MIC ([6]; P. aeruginosa strain MR23): 128 µg/mL (≈ 294 µM)

Structure (SMILES): C[C@@H](O)[C@H]1C(=O)N2C(C(=O)O)=C(S[C@@H]3CN[C@H](C(=O)N(C)C)C3)[C@H](C)[C@H]12 [Meropenem]
MIC ([7]; ATCC 29213): 0.125 µg/mL (≈ 0.326 µM)
MIC [8, 11]: 128 µg/mL (≈ 334 µM)
MIC [8, 12]: 32 µg/mL (≈ 83.4 µM)
MIC [8, 13]: 128 µg/mL (≈ 334 µM)

Structure (SMILES): CC(C)(O/N=C(\C(=O)N[C@@H]1C(=O)N2C(C(=O)[O-])=C(C[n+]3ccccc3)CS[C@H]12)c1csc(N)n1)C(=O)O [Ceftazidime]
MIC ([6]; P. aeruginosa strain AGR 18): 32 µg/mL (≈ 58.5 µM)
MIC ([6]; P. aeruginosa strain MR23): 32 µg/mL (≈ 58.5 µM)

Structure (SMILES): NCC[C@H](O)C(=O)N[C@@H]1C[C@H](N)[C@@H](O[C@H]2O[C@H](CN)[C@@H](O)[C@H](O)[C@H]2O)[C@H](O)[C@H]1O[C@H]1O[C@H](CO)[C@@H](O)[C@H](N)[C@H]1O [Amikacin]
MIC ([6]; P. aeruginosa strain AGR 18): 128 µg/mL (≈ 219 µM)
MIC ([6]; P. aeruginosa strain MR23): 256 µg/mL (≈ 437 µM)

Structure (SMILES): C[C@@H]1[C@H](O)[C@@H](C)/C=C/C=C/C=C/C=C/C=C/C=C/C=C/[C@H](O[C@@H]2O[C@H](C)[C@@H](O)[C@H](N)[C@@H]2O)C[C@@H]2O[C@](O)(C[C@@H](O)C[C@@H](O)[C@H](O)CC[C@@H](O)C[C@@H](O)CC(=O)O[C@H]1C)C[C@H](O)[C@H]2C(=O)O [AMB]
Minimal inhibitory concentration ([9]; C. glabrata CG1514053): 4 µg/mL (≈ 4.33 µM)
Minimal inhibitory concentration ([9]; C. glabrata VT18): 8 µg/mL (≈ 8.66 µM)

Structure (SMILES): N.N.[Cl][Pt][Cl] [Cisplatin]
Tumor size, 7 days after transplantation ([10]; 7 days): 72.4 mm^3
Tumor size, 11 days after transplantation ([10]; 11 days): 180.7 mm^3
Tumor size, 14 days after transplantation ([10]; 14 days): 243.3 mm^3
Tumor size, 18 days after transplantation ([10]; 18 days): 345.8 mm^3
Tumor size, 22 days after transplantation ([10]; 22 days): 548.2 mm^3
Tumor size, 25 days after transplantation ([10]; 25 days): 607.7 mm^3

Structure (SMILES): CN[C@H](CC(C)C)C(=O)N[C@H]1C(=O)N[C@@H](CC(N)=O)C(=O)N[C@H]2C(=O)N[C@H]3C(=O)N[C@H](C(=O)N[C@H](C(=O)O)c4cc(O)cc(O)c4-c4cc3ccc4O)[C@H](O)c3ccc(c(Cl)c3)Oc3cc2cc(c3O[C@@H]2O[C@H](CO)[C@@H](O)[C@H](O)[C@H]2O[C@H]2C[C@](C)(N)[C@H](O)[C@H](C)O2)Oc2ccc(cc2Cl)[C@H]1O [Vancomycin]
MIC [7]: 0.5 µg/mL (≈ 0.345 µM)
MIC ([8]; read-out: VRSA strain MIC, VT-A-199): 16 µg/mL (≈ 11 µM)
MIC ([8]; read-out: VRSA strain MIC, VT-V-18): 16 µg/mL (≈ 11 µM)
MIC ([8]; read-out: VRSA strain MIC, VT-V-25): 1 µg/mL (≈ 0.69 µM)
